Results: BindingDB's records for patent US20230399327 (Adlai Nortye Biopharma Co., 2023)

What follows are molecules tested against Mitogen-activated protein kinase kinase kinase kinase 1 (Homo sapiens, UniProt Q92918) (assay: Detection of Compound's Ability to Inhibit HPK1 Kinase Activity Assay).
Method: The specific operation is as follows: configure the enzymatic reaction system buffer (10 mM MOPS, pH 7.2, 5 mM β-glycerol-phosphate, 10 mM MgCl2, 0.8 mM EDTA, 2 mM EGTA, 0.1 mM DTT); the test compound (1 mM the compound stock solution in DMSO) was diluted with buffer to the highest concentration of 60 uM (containing 6% DMSO), and the compound with a concentration of 60 μM was initially diluted 5 times with a buffer containing 6% DMSO for a total of 8 points of gradient concentration; then dilute HPK1 kinase to 30 nM in buffer. Add 2 μl of HPK1 kinase diluent to each well of a Greiner 384-well microplate (Cat. No. 784075), and add 2 μl of buffer to the control well; add 1 μl of the diluted compound to the reaction well after brief centrifugation, and add 1 μl buffer solution containing 6% DMSO to the control well; after short centrifugation, place in a 25° C. constant temperature incubator (Shanghai Yiheng Scientific Instrument Co., Ltd., Cat. No.: LRH-150) and incubate for 20 minutes. Add 3 μl of reaction substrate (10 μM MBP and 20 μM ATP dissolved in distilled water) to each well, briefly centrifuge and incubate in a constant temperature incubator at 25° C. for 60 min, and use ADP-Glo Kinase Assay Kit to detect the enzymatic reaction activity, ADP-Glo Kinase Assay Kit detection is carried out according to the operating instructions of the kit. Data are described using the half maximal inhibitory

Chain of Mitogen-activated protein kinase kinase kinase kinase 1 (Q92918 whole entry): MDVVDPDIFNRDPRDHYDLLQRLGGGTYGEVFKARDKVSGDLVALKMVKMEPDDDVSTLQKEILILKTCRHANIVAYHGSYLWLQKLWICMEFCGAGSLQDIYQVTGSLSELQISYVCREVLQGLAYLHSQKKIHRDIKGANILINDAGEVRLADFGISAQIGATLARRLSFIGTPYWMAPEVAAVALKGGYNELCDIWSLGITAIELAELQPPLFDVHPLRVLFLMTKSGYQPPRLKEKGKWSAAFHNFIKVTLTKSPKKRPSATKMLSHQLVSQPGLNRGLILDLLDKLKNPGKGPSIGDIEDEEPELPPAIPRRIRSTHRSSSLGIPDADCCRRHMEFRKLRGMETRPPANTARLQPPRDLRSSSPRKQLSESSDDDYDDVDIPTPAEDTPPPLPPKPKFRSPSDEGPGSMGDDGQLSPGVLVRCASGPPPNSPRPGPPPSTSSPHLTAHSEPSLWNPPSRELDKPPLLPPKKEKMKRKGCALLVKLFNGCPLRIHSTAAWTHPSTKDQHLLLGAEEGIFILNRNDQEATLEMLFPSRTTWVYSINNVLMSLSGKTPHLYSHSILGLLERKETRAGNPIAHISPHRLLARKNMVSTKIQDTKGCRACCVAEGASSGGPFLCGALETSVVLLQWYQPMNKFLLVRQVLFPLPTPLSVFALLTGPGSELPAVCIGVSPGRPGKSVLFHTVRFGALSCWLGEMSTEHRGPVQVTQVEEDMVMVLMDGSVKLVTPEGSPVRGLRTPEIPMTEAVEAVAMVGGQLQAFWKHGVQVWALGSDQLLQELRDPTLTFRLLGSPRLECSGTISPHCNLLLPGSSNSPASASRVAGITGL

Structure (SMILES) | IC50
CN1CCc2[nH]c(=O)c(Nc3ncc4ccnc(NCC5(C)CC5)c4n3)cc2C1 [US20230399327, Example 77] | < 0.1 nM
CN1CCc2[nH]c(=O)c(Nc3ncc4ccnc(N5CCSCC5)c4n3)cc2C1 [US20230399327, Example 72] | 21.2 nM
COc1nc2c(cc1Nc1ncc3cccc(-c4ccccc4)c3n1)CN(C)CC2 [US20230399327, Example 1] | < 0.1 nM
CN1CCc2[nH]c(=O)c(Nc3ncc4ccnc(N5CCCCCC5)c4n3)cc2C1 [US20230399327, Example 73] | 0.41 nM
CN1CCc2c(cc(Nc3ncc4ccnc(N5CCC(F)(F)C5)c4n3)c(=O)n2C)C1 [US20230399327, Example 85] | 25.3 nM
CN1CCc2c(cc(Nc3ncc4ccnc(N5CCC(F)(F)CC5)c4n3)c(=O)n2C)C1 [US20230399327, Example 79] | < 0.1 nM
COc1nc2c(cc1Nc1ncc3cccc(-c4cnn5ccccc45)c3n1)CN(C)CC2 [US20230399327, Example 2] | < 0.1 nM
COc1cc2c(cc1Nc1ncc3ccnc(N[C@@H](CO)C(C)C)c3n1)CN(C)CC2 [US20230399327, Example 112] | < 0.1 nM
C[C@@H]1CCCCN1c1nccc2cnc(Nc3cc4c([nH]c3=O)CCN(C)C4)nc12 [US20230399327, Example 76] | < 0.1 nM
CN1CCc2[nH]c(=O)c(Nc3ncc4ccnc(NCC(C)(C)CO)c4n3)cc2C1 [US20230399327, Example 70] | 0.29 nM

Results, then the molecule that gave them:

IC50 | Structure (SMILES)
< 0.1 nM | COc1nc2c(cc1Nc1ncc3ccnc(N4CCC[C@H]4CO)c3n1)CN(C)CC2 [US20230399327, Example 101]
< 0.1 nM | COc1nc2c(cc1Nc1ncc3ccnc(NCC(C)(C)O)c3n1)CN(C)CC2 [US20230399327, Example 111]
< 0.1 nM | COc1nc2c(cc1Nc1ncc3ccnc(N4CC(F)(F)C[C@H]4CO)c3n1)CN(C)CC2 [US20230399327, Example 108]
15.4 nM | CCOc1nc2c(cc1Nc1ncc3ccnc(N4CCC[C@H]4CO)c3n1)CN(C)CC2 [US20230399327, Example 106]
< 0.1 nM | COc1nc2c(cc1Nc1ncc3ccnc(NC(C)(C)CO)c3n1)CN(C)CC2 [US20230399327, Example 109]
0.44 nM | CCOc1nc2c(cc1Nc1ncc3ccnc(N[C@H]4CC[C@@H](O)C4)c3n1)CN(C)CC2 [US20230399327, Example 98]
18.1 nM | CCOc1nc2c(cc1Nc1ncc3ccnc(N[C@@H]4CCC[C@H]4O)c3n1)CN(C)CC2 [US20230399327, Example 95]
< 0.1 nM | CCOc1nc2c(cc1Nc1ncc3ccnc(N[C@H](CO)C(C)C)c3n1)CN(C)CC2 [US20230399327, Example 89]
8.31 nM | COc1nc2c(cc1Nc1ncc3ccnc(C4=CCOCC4)c3n1)CN(C)CC2 [US20230399327, Example 26]
21.5 nM | COc1nc2c(cc1Nc1ncc3ccnc(N[C@H](CO)C(C)C)c3n1)CN(C)CC2 [US20230399327, Example 91]
< 0.1 nM | CC[C@H](CO)Nc1nccc2cnc(Nc3cc4c(nc3OC)CCN(C)C4)nc12 [US20230399327, Example 110]
